# Test results reported in patent publication EP0511845B1, “Pesticidal 1-aryl-5-(substituted alkylideneimino)-pyrazoles” (AVENTIS CROPSCIENCE S.A., priority 1991, dated 1992).
# Columns and labels:
# Type in all cases: in vivo
# Spodoptera eridania [1] = assay: Southern armyworm on cotton - systemic evaluation (soil drench); details: systemic via root uptake; for control of southern armyworm at six days on cotton: 20 ppm soil concentration dose (and subsequent dilutions); for control of southern armyworm at thirteen days: plant not repeated, follows the cotton clause
# Experimental: (§1) Cotton aphid and southern armyworm (on cotton) and greenbug and southern armyworm (on sorghum) - systemic evaluation: A stock solution or suspension was prepared to deliver 5 ml of a 20 ppm soil concentration dose (and subsequent dilutions) as a drench to 6 cm pots containing cotton and sorghum plants. The cotton plants were previously infested with cotton aphids about two days before treatment and greenbug one day before treatment. After holding the plants about three days, the plants were rated for aphid activity. Again at six days, the plants were rated for aphid activity and the cotton aphids and greenbugs were counted and mortality was assessed. Portions of the cotton and sorghum foliage were excised, placed in separate plastic containers, and infested with second instar larvae of southern armyworms. The potted plants were dipped in sulfotepp to kill the remaining aphids and returned to the greenhouse for regrowth. Thirteen days after treatment the remaining foliage was excised and fed to southern armyworm. Mortality was assessed six days after infestation.
# Heliothis virescens [2] = assay: Tobacco budworm - contact evaluation (topical application); details: topical or contact tests; application dose of 63 µg/g body weight
# Experimental: For tobacco budworm contact tests, a stock solution was prepared by dissolving the compound in acetone and then further diluted to provide the required serial dilution concentrations.
# Tobacco budworm - contact evaluation: The following topical application method provides an assessment of contact toxicity of a compound to tobacco budworm larvae The test compound solution at sequential two-fold dilution concentrations from 10 down to 0.16 µg/µl was applied by a microinjector in repli cated 1 µl portions to the dorsum of approximately 20 mg tobacco budworm larvae. This is equivalent to applied doses of 500 down to 8 µg/g body weight. An acetone treated control, without any test compounds, as also applied. A treated control with a commercial technical compound, cypermethrin or thiodicarb, also in acetone was used as a standard. The treated larvae were placed, individually, in separate plastic petri dishes containing an untreated cotton leaf and a moist dental wick. The treated larvae were maintained at about 27°C and 50% relative humidity. The percent mortality was rated 1 and 4 days after treatment.
# Spodoptera eridania [3] = assay: Southern armyworm on sorghum - systemic evaluation (soil drench); details: systemic via root uptake; for control of southern armyworm at thirteen days (sorghum): on sorghum; for control of southern armyworm after six days on sorghum: 20 ppm soil concentration dose (and subsequent dilutions)
# Experimental: as §1
# Schizaphis graminum = assay: Greenbug on sorghum - systemic evaluation (soil drench); details: systemic via root uptake, soil drench at soil concentrations of the protocols (10.0 or 20 ppm)
# Experimental: (§2) For southern root-knot nematod and systemic tests for southern armyworm, cotton aphid, tobacco budworm and greenbug, a stock solution or suspension was prepared by adding 15 mg of the test compound to 250 mg of dimethylformamide, 1250 mg of acetone and 3 mg of the emulsifier blend referenced above. Water was then added to provide a test compound concentration of 150 ppm. When necessary, sonication was provided to insure complete dispersion. Cotton aphid and tobacco budworm (on cotton) and greenbug and tobacco budworm (on sorghum) - systemic evaluation: A 7.0 ml aliquot of the 150 ppm nematode test solution was applied to deliver the equivalent of 10.0 ppm soil concentration dose as a drench to 6 cm pots containing cotton and sorghum plants. The cotton plants were previously infested with cotton aphids about two days before treatment and greenbug one day before treatment. After holding the plants about three days, the plants were rated for aphid activity. Again at six days, the plants were rated for aphid activity and the cotton aphids and greenbugs were counted and mortality was assessed. Portions of the cotton and sorghum foliage were excised, placed in separate plastic containers, and infested with second instar larvae of tobacco budworm. The potted plants were dipped in sulfotepp to kill the remaining aphids and returned to the greenhouse for regrowth. Thirteen days after treatment, the remaining foliage was excised and fed to tobacco budworms. Mortality was assessed six days after infestation. Cotton aphid and southern armyworm (on cotton) and greenbug and southern armyworm (on sorghum) - systemic evaluation: A stock solution or suspension was prepared to deliver 5 ml of a 20 ppm soil concentration dose (and subsequent dilutions) as a drench to 6 cm pots containing cotton and sorghum plants. The cotton plants were previously infested with cotton aphids about two days before treatment and greenbug one day before treatment. After holding the plants about three days, the plants were rated for aphid activity. Again at six days, the plants were rated for aphid activity and the cotton aphids and greenbugs were counted and mortality was assessed. Portions of the cotton and sorghum foliage were excised, placed in separate plastic containers, and infested with second instar larvae of southern armyworms. The potted plants were dipped in sulfotepp to kill the remaining aphids and returned to the greenhouse for regrowth. Thirteen days after treatment the remaining foliage was excised and fed to southern armyworm. Mortality was assessed six days after infestation.
# Aphis gossypii = assay: Cotton aphid on cotton - systemic evaluation (soil drench); details: systemic via root uptake, soil drench at soil concentrations of the protocols (10.0 or 20 ppm)
# Experimental: as §2
# Heliothis virescens [4] = assay: Tobacco budworm on sorghum - systemic evaluation (soil drench); details: systemic via root uptake, 10.0 ppm soil concentration
# Experimental: For southern root-knot nematod and systemic tests for southern armyworm, cotton aphid, tobacco budworm and greenbug, a stock solution or suspension was prepared by adding 15 mg of the test compound to 250 mg of dimethylformamide, 1250 mg of acetone and 3 mg of the emulsifier blend referenced above. Water was then added to provide a test compound concentration of 150 ppm. When necessary, sonication was provided to insure complete dispersion. Cotton aphid and tobacco budworm (on cotton) and greenbug and tobacco budworm (on sorghum) - systemic evaluation: A 7.0 ml aliquot of the 150 ppm nematode test solution was applied to deliver the equivalent of 10.0 ppm soil concentration dose as a drench to 6 cm pots containing cotton and sorghum plants. The cotton plants were previously infested with cotton aphids about two days before treatment and greenbug one day before treatment. After holding the plants about three days, the plants were rated for aphid activity. Again at six days, the plants were rated for aphid activity and the cotton aphids and greenbugs were counted and mortality was assessed. Portions of the cotton and sorghum foliage were excised, placed in separate plastic containers, and infested with second instar larvae of tobacco budworm. The potted plants were dipped in sulfotepp to kill the remaining aphids and returned to the greenhouse for regrowth. Thirteen days after treatment, the remaining foliage was excised and fed to tobacco budworms. Mortality was assessed six days after infestation.
smiles,measurement,setting,value
COc1cc(C=Nc2c(SC(F)(F)F)c(C#N)nn2-c2c(Cl)cc(C(F)(F)F)cc2Cl)ccc1OCc1ccccc1 [compound 120],control of southern armyworm at six days on cotton,Spodoptera eridania [1],30-100%
N#Cc1cccc(C=Nc2c(SC(F)(F)F)c(C#N)nn2-c2c(Cl)cc(C(F)(F)F)cc2Cl)c1 [compound 116],control of tobacco budworm (TBW),Heliothis virescens [2],50-100%
COc1ccc(C=Nc2c(S(=O)(=O)C(F)(F)F)c(C#N)nn2-c2c(Cl)cc(C(F)(F)F)cc2Cl)cc1O [compound 65],control of southern armyworm at thirteen days,Spodoptera eridania [1],30-100%
same,control of southern armyworm at thirteen days (sorghum),Spodoptera eridania [3],70-100%
N#Cc1nn(-c2c(Cl)cc(C(F)(F)F)cc2Cl)c(N=Cc2ccc(O)c(Br)c2)c1SC(F)(F)F [compound 100],control of southern armyworm after six days on sorghum,Spodoptera eridania [3],30-100%
N#Cc1nn(-c2c(Cl)cc(C(F)(F)F)cc2Cl)c(N=Cc2cc(O)c(O)c(Br)c2)c1SC(F)(F)F [compound 93],control of greenbug after six days on sorghum,Schizaphis graminum,30-100%
COc1ccc(C=Nc2c(SC(F)(F)F)c(C#N)nn2-c2c(Cl)cc(C(F)(F)F)cc2Cl)cc1 [compound 21],control of greenbug after six days on sorghum,Schizaphis graminum,30-100%
N#Cc1nn(-c2c(Cl)cc(C(F)(F)F)cc2Cl)c(N=Cc2ncc[nH]2)c1SC(F)(F)F [compound 115],control of southern armyworm after six days on sorghum,Spodoptera eridania [3],30-100%
COc1cc(C=Nc2c(SC(F)(F)F)c(C#N)nn2-c2c(Cl)cc(C(F)(F)F)cc2Cl)cc([N+](=O)[O-])c1O [compound 74],control of greenbug after six days on sorghum,Schizaphis graminum,30-100%
COc1cc(C=Nc2c(SC)c(C#N)nn2-c2c(Cl)cc(C(F)(F)F)cc2Cl)ccc1O [compound 110],control of cotton aphid after six days on cotton,Aphis gossypii,30-100%
same,control of southern armyworm at thirteen days,Spodoptera eridania [1],30-100%
same,control of southern armyworm at thirteen days (sorghum),Spodoptera eridania [3],70-100%
same,control of greenbug after six days on sorghum,Schizaphis graminum,30-100%
COc1cc(C=Nc2c(SC(F)(F)F)c(C#N)nn2-c2c(Cl)cc(C(F)(F)F)cc2Cl)ccc1OC(C)=O [compound 69],control of tobacco budworm (TBW),Heliothis virescens [2],50-100%
same,control of southern armyworm at six days on cotton,Spodoptera eridania [1],30-100%
same,control of southern armyworm after six days on sorghum,Spodoptera eridania [3],30-100%
N#Cc1nn(-c2c(Cl)cc(C(F)(F)F)cc2Cl)c(N=Cc2ccco2)c1SC(F)(F)F [compound 20],control of tobacco budworm after six days on sorghum,Heliothis virescens [4],100%
same,control of greenbug after six days on sorghum,Schizaphis graminum,30-100%
COc1ccccc1C=Nc1c(SC(F)(F)F)c(C#N)nn1-c1c(Cl)cc(C(F)(F)F)cc1Cl [compound 113],control of southern armyworm at six days on cotton,Spodoptera eridania [1],30-100%
CCOc1cc(C=Nc2c(S(=O)(=O)C(F)(F)F)c(C#N)nn2-c2c(Cl)cc(C(F)(F)F)cc2Cl)ccc1O [compound 61],control of tobacco budworm (TBW),Heliothis virescens [2],50-100%
CSc1c(C#N)nn(-c2c(Cl)cc(C(F)(F)F)cc2Cl)c1N=Cc1ccc(O)cc1 [compound 111],control of cotton aphid after six days on cotton,Aphis gossypii,30-100%
same,control of greenbug after six days on sorghum,Schizaphis graminum,30-100%
COc1cccc(C=Nc2c(SC(F)(F)F)c(C#N)nn2-c2c(Cl)cc(C(F)(F)F)cc2Cl)c1O [compound 50],control of tobacco budworm (TBW),Heliothis virescens [2],50-100%
CCN(CC)c1ccc(C=Nc2c(SC(F)(F)F)c(C#N)nn2-c2c(Cl)cc(C(F)(F)F)cc2Cl)c(O)c1 [compound 117],control of southern armyworm at thirteen days (sorghum),Spodoptera eridania [3],70-100%
COc1ccc(C=Nc2c(SC(F)(F)Cl)c(C#N)nn2-c2c(Cl)cc(C(F)(F)F)cc2Cl)cc1O [compound 81],control of tobacco budworm (TBW),Heliothis virescens [2],50-100%
Cc1cc(C=Nc2c(S(=O)(=O)C(F)(F)F)c(C#N)nn2-c2c(Cl)cc(C(F)(F)F)cc2Cl)ccc1O [compound 66],control of southern armyworm at thirteen days (sorghum),Spodoptera eridania [3],70-100%
COc1cc(C=Nc2c(SC(F)(F)F)c(C#N)nn2-c2c(Cl)cc(C(F)(F)F)cc2Cl)cc(Br)c1O [compound 42],control of tobacco budworm (TBW),Heliothis virescens [2],50-100%
CCCCCCCC(=O)Oc1ccc(C=Nc2c(SC(F)(F)F)c(C#N)nn2-c2c(Cl)cc(C(F)(F)F)cc2Cl)cc1OC [compound 121],control of southern armyworm after six days on sorghum,Spodoptera eridania [3],30-100%
COc1cc(C=Nc2c(SC(F)(F)F)c(C#N)nn2-c2c(Cl)cc(C(F)(F)F)cc2Cl)cc(O)c1OC [compound 59],control of tobacco budworm (TBW),Heliothis virescens [2],50-100%
"COc1cc(C=Nc2c(SC(F)(F)F)c(C#N)nn2-c2c(Cl)cc(C(F)(F)F)cc2Cl)cc(OC)c1O [compound 13, 1-(2,6-dichloro-4-trifluoromethylphenyl)-3-cyano-4-trifluoromethylsulfenyl-5-[(3,5-dimethoxy-4-hydroxyphenyl)methylideneimino]pyrazole]",control of tobacco budworm (TBW),Heliothis virescens [2],50-100%
same,control of cotton aphid after six days on cotton,Aphis gossypii,30-100%
CC(C)(C)c1cc(C=Nc2c(SC(F)(F)F)c(C#N)nn2-c2c(Cl)cc(C(F)(F)F)cc2Cl)cc(C(C)(C)C)c1O [compound 64],control of southern armyworm at thirteen days,Spodoptera eridania [1],30-100%
COc1cc(C=Nc2c(SC(F)(F)F)c(C#N)nn2-c2ncc(C(F)(F)F)cc2Cl)ccc1O [compound 87],control of greenbug after six days on sorghum,Schizaphis graminum,30-100%
N#Cc1nn(-c2c(Cl)cc(C(F)(F)F)cc2Cl)c(N=Cc2cc[n+]([O-])cc2)c1S(=O)(=O)C(F)(F)F [compound 68],control of southern armyworm at thirteen days,Spodoptera eridania [1],30-100%
Cc1cc(C=Nc2c(SC(F)(F)Cl)c(C#N)nn2-c2c(Cl)cc(C(F)(F)F)cc2Cl)cc(C)c1O [compound 80],control of tobacco budworm (TBW),Heliothis virescens [2],50-100%
COc1cc(O)c(C=Nc2c(S(=O)(=O)C(F)(F)F)c(C#N)nn2-c2c(Cl)cc(C(F)(F)F)cc2Cl)c(OC)c1 [compound 72],control of southern armyworm after six days on sorghum,Spodoptera eridania [3],30-100%
"N#Cc1nn(-c2c(Cl)cc(C(F)(F)F)cc2Cl)c(N=Cc2ccc(O)cc2)c1SC(F)(F)F [compound 4, 1-(2,6-dichloro-4-trifluoromethylphenyl]-3-cyano-4-trifluoromethylsulfenyl-5-[(4-hydroxyphenyl]methylideneimino]pyrazole]",control of greenbug after six days on sorghum,Schizaphis graminum,30-100%
N#Cc1nn(-c2c(Cl)cc(C(F)(F)F)cc2Cl)c(N=Cc2cc(C(F)(F)F)cc(C(F)(F)F)c2)c1SC(F)(F)F [compound 112],control of cotton aphid after six days on cotton,Aphis gossypii,30-100%
same,control of greenbug after six days on sorghum,Schizaphis graminum,30-100%
